Assay results taken from patent publication US12692491B2, “Nucleic acid complexes for screening barcoded compounds” (Children's Medical Center Corporation, priority 2015, dated 2026).

What was measured:
[1] = target: T1, streptavidin (Streptomyces avidinii, UniProt P22629); assay: Desthiobiotin-streptavidin nanoswitch off-rate experiments; format: binding
T1 construct: purchased Rockland
Procedure: Desthiobiotin experiments were conducted in a similar manner as the biotin experiments with slight modifications. […] The off-rate of the desthiobiotin interaction is much faster than the typical 100 minute gel run time. Noting that once a loop opens in the gel, the reptation of the DNA prevents the loop from closing again, we ran samples for different amounts of time in the gel at 15 V/cm and 4° C. and quantified the fraction looped as a function of running time (Appendix A—Supplementary FIG. 5). In addition to allowing the determination of the desthiobiotin-streptavidin off rate, this gel also allowed us to determine the minimum amount of time required to achieve separation of the looped and unlooped bands in the gel. This enabled the use of the standard quenching technique for measuring desthiobiotin off-rates as described in the previous section; these gels were run at 15 V/cm for 10 minutes in pre-chilled electrophoresis buffer.

[2] = target: T1, streptavidin; assay: Biotin-streptavidin nanoswitch on-rate and off-rate experiments; format: binding
Procedure: This construct used biotinylated versions of two oligonucleotides (var 4 and var 8), which were used in 4× molar excess to the scaffold, while all other oligonucleotides were used in a 10× molar excess. […] The final DNA construct was then diluted 100× from its original concentration of ~16 nM (to 160 pM), and mixed in equal volumes with streptavidin (Rockland) at 6 nM nominal concentration to form the loops, yielding final nominal concentrations of ~80 pM and 3 nM, respectively.
The 25° C. experiment was performed at room temperature, the 4° C. experiment was performed in a cold room, and the 37° C. and 50° C. experiments were performed using a thermal cycler. […] Actual concentrations used to determine the on-rates were measured using spectrophotometry and a HABA assay to determine streptavidin activity.
Off-rate measurements were performed by forming looped construct as described above, and letting the solution sit for at least 24 hours to allow the system to reach equilibrium. […] The 4° C. condition was done in a refrigerator, the 25° C. sample was done in a water bath, and the 37° C. and 50° C. temperatures were done in a thermal cycler. To run all the samples on a single gel, the quenching times were determined relative to the predetermined gel running time.
We additionally used Eyring analysis to fit the temperature dependence of the kinetic rates: […]

T1 sequence (P22629 25-183): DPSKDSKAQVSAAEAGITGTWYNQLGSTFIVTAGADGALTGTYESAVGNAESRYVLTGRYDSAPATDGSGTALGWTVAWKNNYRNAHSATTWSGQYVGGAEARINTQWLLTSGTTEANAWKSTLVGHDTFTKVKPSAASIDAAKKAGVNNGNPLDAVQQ

Q: What does the source list for `C[C@@H]1NC(=O)N[C@@H]1CCCCCC(=O)O` [desthiobiotin]?
A: off-rate of streptavidin-desthiobiotin ([1]; 4° C.): 35.3 ± 7.5 min; off-rate of streptavidin-desthiobiotin ([1]; room temperature): 8.6 ± 1.2 min

Q: Which results are given for `O=C(O)CCCC[C@@H]1SC[C@@H]2NC(=O)N[C@@H]21` [biotin]?
A: on-rate ([2]; 150 mM salt, room temperature): 4.0±0.7×10^6 M^−1s^−1; equilibrium enthalpy change ΔH ([2]; calculated from on-rate and off-rate measurements): 26.01 ± 0.05 kcal/mol; dissociation time ([2]; physiological salt conditions and 25° C.): 9.7 ± 0.4 days
